The target in experiment [1] is T1, zebrafish α9α10 (1:2) nAChR (Danio rerio, UniProt A0A8M9PIT7+Q1LY90).
T1 sequence (A0A8M9PIT7 20-580): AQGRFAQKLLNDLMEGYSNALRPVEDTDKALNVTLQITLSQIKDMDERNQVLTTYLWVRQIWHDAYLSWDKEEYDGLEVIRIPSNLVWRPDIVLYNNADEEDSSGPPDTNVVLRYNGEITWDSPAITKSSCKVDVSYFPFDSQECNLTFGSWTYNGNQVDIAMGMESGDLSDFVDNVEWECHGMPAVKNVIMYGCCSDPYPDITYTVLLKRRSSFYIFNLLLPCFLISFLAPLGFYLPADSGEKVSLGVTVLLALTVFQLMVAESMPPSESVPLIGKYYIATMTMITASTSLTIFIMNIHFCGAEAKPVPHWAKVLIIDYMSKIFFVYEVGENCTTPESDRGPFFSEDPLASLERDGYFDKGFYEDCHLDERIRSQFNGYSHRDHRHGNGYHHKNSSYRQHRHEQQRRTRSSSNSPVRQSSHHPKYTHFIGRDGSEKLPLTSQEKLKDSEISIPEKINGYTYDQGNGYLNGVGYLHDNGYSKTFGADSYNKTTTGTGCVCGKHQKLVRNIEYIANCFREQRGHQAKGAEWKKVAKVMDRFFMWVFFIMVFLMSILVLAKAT
T1 sequence (Q1LY90 26-527): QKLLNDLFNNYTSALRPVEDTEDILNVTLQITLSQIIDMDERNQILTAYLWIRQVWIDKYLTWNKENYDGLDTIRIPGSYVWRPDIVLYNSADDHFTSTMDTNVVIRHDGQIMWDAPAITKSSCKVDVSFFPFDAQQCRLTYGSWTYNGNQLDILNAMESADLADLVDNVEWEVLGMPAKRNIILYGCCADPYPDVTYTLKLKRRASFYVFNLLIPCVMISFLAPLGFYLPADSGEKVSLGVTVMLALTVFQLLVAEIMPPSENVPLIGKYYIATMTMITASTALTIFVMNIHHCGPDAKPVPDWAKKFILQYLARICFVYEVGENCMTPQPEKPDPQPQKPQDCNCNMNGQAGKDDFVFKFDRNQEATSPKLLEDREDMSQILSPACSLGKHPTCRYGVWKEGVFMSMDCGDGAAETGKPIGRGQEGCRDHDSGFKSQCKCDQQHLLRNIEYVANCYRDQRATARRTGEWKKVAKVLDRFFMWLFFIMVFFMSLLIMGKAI
Nature of the experiment: two-electrode voltage clamp, peak inward current, Hill fit. It counts as cell-based. (Two-electrode voltage clamp is typically applied to oocytes expressing channels or transporters.)

Experiment [2] has as its target T2, zebrafish α9 nAChR (homomeric) (Danio rerio, UniProt A0A8M9PIT7).
T2 sequence (A0A8M9PIT7 20-580): T1 sequence (A0A8M9PIT7 20-580)
The description is as above. In kind it is cell-based.

A word on the EC50: it is the midpoint of the concentration-response curve. Low values mean greater potency, high ones weaker potency.

The structures appear in SMILES notation.

Turning to `CC(=O)OCC[N+](C)(C)C` [ACh, acetylcholine], the EC50 in experiment [1] came to 437 µM; in experiment [2], 11.7 µM.

The record behind these values is doi:10.1101/2020.07.09.196246v1 (biorxiv, 2020).
